Reference: patent US20070093416A1, “Human beta-defensin secretion promoter” (priority 2003, published 2007)

Test system: β-defensin-2
Test: β-Defensin Secretion Promotion Confirmatory Test-3 (Concentration Dependency)
Assay type: in vivo, human
Conditions: 3 healthy adults
Method: To evaluate β-defensin secretion promotion effects and concentration dependency of an organic acid, the following tests were conducted using 3 healthy adults as subjects. Saliva secreted for 3 minutes from rested subjects was collected by a spitting method (hereunder, this is referred to as the control). Thereafter, 1 ml of 0.01 wt % malic acid (amount of malic acid ingested: 0.1 mg) was placed in the oral cavity, held for one minute, and then collected together with the secreted saliva. The concentration of β-defensin-2 in the saliva was measured by ELISA, and the amount of β-defensin-2 secreted over one minute using 0.1 mg of malic acid was calculated based on the formula below. Note that the saliva amount (ml) in the formula below was calculated based on the weight of the collected saliva (g) assuming 1 g of saliva=1 ml of saliva. The same test was conducted, respectively, using 0.05, 0.1, 0.2, 0.5, or 1 wt % malic acid aqueous solution (amounts of ingested: 0.5, 1, 2, 5, and 10 mg). [table]

## O=C(O)CC(O)C(=O)O (centres unmarked) [malic acid]
1 ml of 0.01-1 wt % malic acid aqueous solution (0.1-10 mg) held in oral cavity for one minute, FIG. 3
  amount of β-defensin-2 secreted in saliva: increases depending on the concentration
Concentration of 0.01% (amount ingested: 0.1 mg), 1 ml held in oral cavity for one minute
  human β-defensin-2 secretion induction effect: has a human β-defensin-2 secretion induction effect
